Reference: patent US20240391901A1, “SUBSTITUTED HETEROCYCLIC COMPOUND CONTAINING ALPHA-KETONE FRAMEWORK, AND USE THEREOF” (CHINA PHARMACEUTICAL UNIVERSITY, priority 2021, published 2024)
pIC50: −log10 of the molar value.

Tests used:
mice = assay: Acetic acid writhing test in mice (analgesic activity); format: in vivo; settings: 5 mg/kg s.c
Experimental: Using the acetic acid writhing test in mice as a pain model to evaluate the analgesic activity of compound I-11. The experimental animal information and procedures are outlined below.
Healthy ICR mice, of clean grade, weighing 20-25 g. The animal facility complies with the requirements of a clean laboratory, with a temperature of 20-22° C., humidity of 40%˜70%, and controlled lighting on a 12-hour light/12-hour dark cycle (lighting from 8:00 to 20:00). Mice are housed in plastic cages (280×150×180 mm) with 10 mice per cage, separated by gender, and provided ad libitum access to food and water. The diet consists of experimental rodent pellets, and the drinking water is city tap water sterilized by high-temperature autoclaving. Mice are allowed a 7-day acclimatization period. All procedures involving animals are conducted following the guidelines of the International Association for the Study of Pain Ethics Committee. Mice are housed in the animal facility upon purchase.
Glacial acetic acid and physiological saline were obtained from the China Pharmaceutical University reagent repository. Compound I-11 was a laboratory-synthesized compound (purity>98%).
Mice were marked with saturated bitter solution, with the left front limb marked as number 1, left hind limb as number 2, right front limb as number 3, right hind limb as number 4, and head as number 5. Combinations such as head with left front limb as number 6, head with left hind limb as number 7, head with right front limb as number 8, head with right hind limb as number 9, and tail as number 10 were used for identification. Animals were divided into groups, with n=10 in each group, evenly distributed between males and females.
The experiment employed the acetic acid-induced writhing test in mice to investigate the analgesic activity of the samples. […] The number of writhing movements and the latency period of mice were observed and recorded 15 minutes after acetic acid injection, and the analgesic percentage was calculated. […]

FAAH = biological target: T1, FAAH (Homo sapiens, UniProt O00519); assay: In vitro FAAH enzyme inhibition activity assay (FAAH assay kit, fluorescently labeled substrate); format: biochemical
T1 construct: purchased
T1 sequence (O00519 1-579): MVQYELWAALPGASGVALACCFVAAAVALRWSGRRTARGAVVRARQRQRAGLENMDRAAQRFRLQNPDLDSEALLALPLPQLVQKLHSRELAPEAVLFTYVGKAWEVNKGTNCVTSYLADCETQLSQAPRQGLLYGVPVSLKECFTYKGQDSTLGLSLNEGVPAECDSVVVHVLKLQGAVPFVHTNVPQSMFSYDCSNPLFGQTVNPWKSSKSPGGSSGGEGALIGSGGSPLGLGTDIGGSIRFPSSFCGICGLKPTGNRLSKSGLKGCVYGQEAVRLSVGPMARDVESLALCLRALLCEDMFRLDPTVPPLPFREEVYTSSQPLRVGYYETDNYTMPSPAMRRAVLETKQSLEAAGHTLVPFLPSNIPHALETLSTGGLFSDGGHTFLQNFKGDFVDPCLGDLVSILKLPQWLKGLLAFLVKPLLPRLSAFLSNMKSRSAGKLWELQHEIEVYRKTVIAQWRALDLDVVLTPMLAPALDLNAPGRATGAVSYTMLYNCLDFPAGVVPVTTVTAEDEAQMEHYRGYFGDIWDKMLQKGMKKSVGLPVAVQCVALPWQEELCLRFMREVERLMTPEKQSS
Experimental: FAAH hydrolyzes AEA to form ethanolamine within cells. Different enzyme activities catalyze the formation of varying amounts of products from a fixed amount of substrate. The enzyme activity level can be assessed by measuring the amount of products generated. Based on this principle, experiments were designed in this invention. According to the FAAH assay kit instructions, a certain concentration of FAAH was diluted and added to a buffer solution along with a fluorescently labeled substrate. Compounds of various concentrations were then added, along with blank control groups and JZL-195 positive control groups. After the reaction, fluorescence analysis was performed using a plate reader, and the inhibition rate was calculated.

SD rats [1] = assay: Forced swimming test, chlorpromazine-induced depression model; format: in vivo
Experimental: (§1) Male SD rats weighing between 180 g to 200 g were randomly divided into 6 groups, with 8 rats in each group, as follows: Normal group; Chlorpromazine group; Positive control group (Amitriptyline, 6 mg/kg); I-11 low dose group (3 mg/kg); I-11 medium dose group (6 mg/kg); I-11 high dose group (12 mg/kg); In the normal group, rats were maintained under normal conditions. In other groups, rats were intraperitoneally injected with chlorpromazine (0.2 mg/kg) once a day for three days to induce the model. After successful modeling, the respective drugs were administered according to the group. After two weeks of continuous administration, sucrose consumption test, open field test, and forced swimming test were conducted sequentially.

SD rats [2] = assay: Open field test, chlorpromazine-induced depression model; format: in vivo; settings: 6 mg/kg
Experimental: as §1, with “sequentially. After the sucrose preference test, we conducted an open field test on the experimental animals.” for “sequentially.”

SD rats [3] = assay: Sucrose preference test, chlorpromazine-induced depression model; format: in vivo
Experimental: as §1, with “sequentially. The American Psychiatric Association considers a significant feature of depression to be the decrease in reward responsiveness, indicating a loss of pleasure. The sucrose preference test is a well-established measure for assessing reward responsiveness in experimental animals.” for “sequentially.”

Structure (SMILES) | pIC50 (FAAH; values in nm) | pIC50 (FAAH; values given in μm [sic]) | also measured
CN1CC[C@]23c4c5ccc(O)c4O[C@H]2[C@@H](O)C=C[C@H]3[C@H]1C5 [Morphine] |  |  | Inhibition (analgesic percentage, writhing) (mice): 100.0%; latency period (mice): 0 s; writhing count (mice; within 15 minutes after acetic acid): 0
Cn1c(C(=O)N2CCC(C(=O)c3nc4ccccc4s3)CC2)cc2cc(Cl)ccc21 [Compound I-9] | 6.55 |  | 
O=C(c1ccccn1)C1CCN(C(=O)c2cc3ccccc3o2)CC1 [Compound I-4, (1-(benzofuran-2-carbonyl)piperidin-4-yl)(pyridin-2-yl)methanone] |  | 5.00 | 
Cn1c(C(=O)N2CCC(C(=O)c3ccncc3)CC2)cc2cc(Cl)ccc21 [Compound I-1] |  | 4.55 | 
Cn1c(C(=O)N2CCC(C(=O)c3ncc(-c4ccccc4)o3)CC2)cc2cc(Cl)ccc21 [Compound I-10, (5-chloro-1-methyl-1H-indol-2-yl)-(4-(5-phenyl-oxazol-2-carbonyl)piperidin-1-yl)methanone] | 6.95 |  | 
O=C(c1ccccn1)C1CCN(C(=O)c2cnc3ccccc3c2)CC1 [Compound I-5] |  | 3.90 | 
Cn1c(C(=O)N2CCC(C(=O)c3ccccn3)CC2)cc2cc(Cl)ccc21 [Compound I-3] |  | 4.87 | 
O=C(c1ccccn1)C1CCN(Cc2cnc3ccccc3c2)CC1 [Compound I-6, Pyridin-2-yl(1-(quinolin-3-ylmethyl)piperidin-4-yl)methanone] |  | 3.88 | 
Cn1c(C(=O)N2CCC(C(=O)c3nccs3)CC2)cc2cc(Cl)ccc21 [Compound I-8, (5-chloro-1-methyl-1H-indol-2-yl)(4-(thiazol-2-carbonyl)piperidin-1-yl)methanone] |  | 5.99 | 
O=C(Oc1ccc([N+](=O)[O-])cc1)N1CCN(Cc2cccc(Oc3ccccc3)c2)CC1 [JZL-195, reference compound] | 8.55 |  | 
Cn1c(C(=O)N2CCC(C(=O)c3ccncc3)CC2)cc2ccccc21 [Compound I-2] |  | 4.85 | 
Cn1c(C(=O)N2CCC(C(=O)c3nnc(-c4cccc(Cl)c4)o3)CC2)cc2cc(Cl)ccc21 [Compound I-13, (5-chloro-1-methyl-1H-indol-2-yl)(4-(5-(3-chlorophenyl)-1,3,4-oxadiazol-2-carbonyl)piperidin-1-yl)methanone] | 7.05 |  | 
Cn1c(C(=O)N2CCC(C(=O)c3ncco3)CC2)cc2cc(Cl)ccc21 [Compound I-7, (5-Chloro-1-methyl-1H-indol-2-yl)(4-(oxazole-2-carbonyl)piperidin-1-yl) methanone] | 7.11 |  | 
Cn1c(C(=O)N2CCC(C(=O)c3nnc(-c4cccs4)o3)CC2)cc2cc(Cl)ccc21 [Compound I-16, (5-chloro-1-methyl-1H-indol-2-yl) (4-(5-(thiophene-2-yl)-1,3,4-oxadiazol-2-carbonyl)piperidin-1-yl)methanone] | 7.89 |  | 
CN(C)CCC=C1c2ccccc2CCc2ccccc21 [Amitriptyline] |  |  | immobility time versus model (in words) (SD rats [1]; Amitriptyline 6 mg/kg, I-11 medium and high dose, p<0.05): reduce the immobility time; Immobility Time (SD rats [1]; model rats, 6 mg/kg): 88.47 ± 4.64 s; Frequency of grooming (SD rats [2]): 4.3 ± 0.3 n; Frequency of upright (SD rats [2]): 10.6 ± 2.2 n; Times passing the grid (SD rats [2]): 58.9 ± 2.2 n; Total time in center (SD rats [2]): 4.6 ± 0.6 s; sucrose intake compared to the model group (in words) (SD rats [3]; high-dose I-11 (12 mg/kg), amitriptyline 6 mg/kg): significant increase in sucrose intake; Sucrose intake ratio (SD rats [3]; model rats, 6 mg/kg, two weeks of administration): 78.6 ± 4.6 %
Cn1c(C(=O)N2CCC(C(=O)c3nnc(-c4ccco4)o3)CC2)cc2cc(Cl)ccc21 [Compound I-15, (5-chloro-1-methyl-1H-indol-2-yl)(4-(5-(furan-2-yl)-1,3,4-oxadiazol-2-carbonyl)piperidin-1-yl)methanone] | 8.51 |  | 
